Test results taken from PubChem BioAssay AID1963426 (Molecular Pharmacology Branch, DTP, NCI, 2024).

Test system: 186277-243-T-J2-PDC complex spheroid growth, % test/control
Test: Anticancer human tumor 186277-243-T-J2-PDC patient-derived colon adenocarcinoma cell line growth inhibition [Asc]
Conditions: for IC50: curve of first compound; for viability, T/C: stronger effect = lower value
Procedure, shortened: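 Complex spheroids combining tumor cells with HUVEC endothelial cells and human MSCs, at 37 degrees C, 5% CO2; agents tested alone or combined, half-log dilutions from at or near clinical Cmax, or 10 microM if Cmax unknown.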
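Further: spheroids exposed to agents for 7 days.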
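Wherever viability, T/C is given: 100% = DMSO vehicle control wells.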

## C=CC(=O)N1CCN(c2nc(=O)n(-c3c(C)ccnc3C(C)C)c3nc(-c4c(O)cccc4F)c(F)cc23)C(C)C1 (stereo not given) + CCN1C(C(=O)NC23CCC(C(=O)O)(CC2)CC3)C(c2cccc(Cl)c2F)C2(C(=O)Nc3cc(Cl)ccc32)C12CCCCC2
Second compound 0.03 µM
  IC50: > 10 µM
Second compound 0.0949 µM
  IC50: > 10 µM
Second compound 0.3 µM
  IC50: > 10 µM
Second compound 0.949 µM
  IC50: 3.74 µM
Second compound 3 µM
  IC50: < 0.0316 µM
Second compound 0.03 µM, first compound 0.0316 µM
  viability, T/C: 124%
Second compound 0.03 µM, first compound 0.1 µM
  viability, T/C: 119%
Second compound 0.03 µM, first compound 0.316 µM
  viability, T/C: 119%
Second compound 0.03 µM, first compound 1 µM
  viability, T/C: 127%
Second compound 0.03 µM, first compound 3.16 µM
  viability, T/C: 122%
Second compound 0.03 µM, first compound 10 µM
  viability, T/C: 125%
Second compound 0.0949 µM, first compound 0.0316 µM
  viability, T/C: 119%
Second compound 0.0949 µM, first compound 0.1 µM
  viability, T/C: 92.9%
Second compound 0.0949 µM, first compound 0.316 µM
  viability, T/C: 112%
Second compound 0.0949 µM, first compound 1 µM
  viability, T/C: 94.5%
Second compound 0.0949 µM, first compound 3.16 µM
  viability, T/C: 113%
Second compound 0.0949 µM, first compound 10 µM
  viability, T/C: 103%
Second compound 0.3 µM, first compound 0.0316 µM
  viability, T/C: 74.9%
Second compound 0.3 µM, first compound 0.1 µM
  viability, T/C: 82.2%
Second compound 0.3 µM, first compound 0.316 µM
  viability, T/C: 81.2%
Second compound 0.3 µM, first compound 1 µM
  viability, T/C: 79.4%
Second compound 0.3 µM, first compound 3.16 µM
  viability, T/C: 74.7%
Second compound 0.3 µM, first compound 10 µM
  viability, T/C: 69.1%
Second compound 0.949 µM, first compound 0.0316 µM
  viability, T/C: 62.5%
Second compound 0.949 µM, first compound 0.1 µM
  viability, T/C: 59.3%
Second compound 0.949 µM, first compound 0.316 µM
  viability, T/C: 58.1%
Second compound 0.949 µM, first compound 1 µM
  viability, T/C: 57.3%
Second compound 0.949 µM, first compound 3.16 µM
  viability, T/C: 51.4%
Second compound 0.949 µM, first compound 10 µM
  viability, T/C: 42%
Second compound 3 µM, first compound 0.0316 µM
  viability, T/C: 33.2%
Second compound 3 µM, first compound 0.1 µM
  viability, T/C: 36%
Second compound 3 µM, first compound 0.316 µM
  viability, T/C: 35.9%
Second compound 3 µM, first compound 1 µM
  viability, T/C: 36.5%
Second compound 3 µM, first compound 3.16 µM
  viability, T/C: 41%
Second compound 3 µM, first compound 10 µM
  viability, T/C: 32.7%

## C=CC(=O)N1CCN(c2nc(=O)n(-c3c(C)ccnc3C(C)C)c3nc(-c4c(O)cccc4F)c(F)cc23)C(C)C1 (stereo not given) + Cc1c(S(C)(=O)=O)c(-c2cc(F)cc(N3CCN(c4ccc(NS(=O)(=O)c5ccc(NC(CCN6CCC(C(=O)OCCCP(=O)(O)O)CC6)CSc6ccccc6)c(S(=O)(=O)C(F)(F)F)c5)cc4)CC3)c2)c(-c2ccc(Cl)cc2)n1C(C)C
Second compound 0.1 µM
  IC50: > 10 µM
Second compound 0.316 µM
  IC50: > 10 µM
Second compound 1 µM
  IC50: > 10 µM
Second compound 3.16 µM
  IC50: > 10 µM
Second compound 10 µM
  IC50: > 10 µM
Second compound 0.1 µM, first compound 0.0316 µM
  viability, T/C: 120%
Second compound 0.1 µM, first compound 0.1 µM
  viability, T/C: 105%
Second compound 0.1 µM, first compound 0.316 µM
  viability, T/C: 105%
Second compound 0.1 µM, first compound 1 µM
  viability, T/C: 108%
Second compound 0.1 µM, first compound 3.16 µM
  viability, T/C: 116%
Second compound 0.1 µM, first compound 10 µM
  viability, T/C: 113%
Second compound 0.316 µM, first compound 0.0316 µM
  viability, T/C: 111%
Second compound 0.316 µM, first compound 0.1 µM
  viability, T/C: 104%
Second compound 0.316 µM, first compound 0.316 µM
  viability, T/C: 104%
Second compound 0.316 µM, first compound 1 µM
  viability, T/C: 104%
Second compound 0.316 µM, first compound 3.16 µM
  viability, T/C: 119%
Second compound 0.316 µM, first compound 10 µM
  viability, T/C: 116%
Second compound 1 µM, first compound 0.0316 µM
  viability, T/C: 128%
Second compound 1 µM, first compound 0.1 µM
  viability, T/C: 115%
Second compound 1 µM, first compound 0.316 µM
  viability, T/C: 100%
Second compound 1 µM, first compound 1 µM
  viability, T/C: 116%
Second compound 1 µM, first compound 3.16 µM
  viability, T/C: 119%
Second compound 1 µM, first compound 10 µM
  viability, T/C: 119%
Second compound 3.16 µM, first compound 0.0316 µM
  viability, T/C: 105%
Second compound 3.16 µM, first compound 0.1 µM
  viability, T/C: 123%
Second compound 3.16 µM, first compound 0.316 µM
  viability, T/C: 115%
Second compound 3.16 µM, first compound 1 µM
  viability, T/C: 111%
Second compound 3.16 µM, first compound 3.16 µM
  viability, T/C: 116%
Second compound 3.16 µM, first compound 10 µM
  viability, T/C: 116%
Second compound 10 µM, first compound 0.0316 µM
  viability, T/C: 102%
Second compound 10 µM, first compound 0.1 µM
  viability, T/C: 109%
Second compound 10 µM, first compound 0.316 µM
  viability, T/C: 102%
Second compound 10 µM, first compound 1 µM
  viability, T/C: 119%
Second compound 10 µM, first compound 3.16 µM
  viability, T/C: 104%
Second compound 10 µM, first compound 10 µM
  viability, T/C: 110%
